Source: patent US6867207B2, “IL-5 inhibiting 6-azauracil derivatives” (Janssen Pharmaceutica N.V., priority 1997, dated 2005)

System: IL-5 production
Test: In vitro inhibition of IL-5 production in human blood (phytohemagglutinin-stimulated whole blood, ELISA)
Assay type: cell-based
Conditions: test dose 1×10^−6 M, 48 hours
Method: In Vitro Inhibition of IL-5 Production in Human Blood
Human Whole Blood Stimulation
Peripheral blood from healthy male donors was drawn into heparinized syringes (12.5 U heparin/ml). Blood samples were three-fold diluted in RMPI 1640 medium (Life Technologies, Belgium) supplemented with 2 mM L-glutamine, 100 U/ml penicillin and 100 μg/ml streptomycin, and 300 μl fractions were distributed in 24-well multidisc plates. Blood samples were preincubated (60 minutes at 37° C.) in a humidified 6% CO2-atmosphere with 100 μl of drug solvent (final concentration 0.02% dimethylsulfoxide in RPMI 1640) or with 100 μl of an appropriate dose of test compound before being stimulated by the addition of 100 μl of phytohemagglutinin HA17 (Murex, UK) at a final concentration of 2 μg/ml. After 48 hours, cell-free supernatant fluids were collected by centrifugation and stored at −70° C. until tested for the presence of IL-5.
IL-5 measurements were conducted as described in Van Wauwe et al. (1996, Inflamm Res, 45, 357-363) on page 358 using ELISA.
Table 9 lists the percentage inhibition of IL-5 production (column “% inh”) at a test dose of 1×10^−6 M, or in case the percentage inhibition is marked with an “*” 1×10^−5 M, the compounds of the present invention.

Point of comparison: `Cc1nc(-c2ccccc2Cl)sc1C(c1ccc(Cl)cc1)c1c(Cl)cc(-n2ncc(=O)[nH]c2=O)cc1Cl` (racemic) [Compound 137], “% inh. (percentage inhibition of IL-5 production)” value 64%. Against it:
- O=c1cnn(-c2cc(Cl)c(C(Sc3nc4ccccc4o3)c3ccc(Cl)c(C(F)(F)F)c3)c(Cl)c2)c(=O)[nH]1 (centres unmarked) [Compound 379] — higher, 95%
- CC(c1ccc(Cl)c(F)c1)(c1nc(-c2ccccc2)cs1)c1c(Cl)cc(-n2ncc(=O)[nH]c2=O)cc1Cl (racemic) [Comp 288] — higher, 90%
- Cn1ccnc1C(O)(c1ccc(Cl)cc1)c1ccc(-n2ncc(=O)[nH]c2=O)cc1Cl.O (racemic) [Compound 120, (±)-2-[3-chloro[4-[(4-chlorophenyl)hydroxy(1-methyl-1H-imidazol-2-yl)methyl]phenyl]-1,2,4-triazine-3,5(2H,4H)-dione monohydrate] — lower, 10%
- O=c1cnn(-c2cc(Cl)c(C(c3ccc(Cl)cc3)c3nc(-c4cccc(Cl)c4)cs3)c(Cl)c2)c(=O)[nH]1 (racemic) [Comp 19] — higher, 83%
- NS(=O)(=O)Nc1cccc(-c2nnc(C(c3ccc(Cl)cc3)c3c(Cl)cc(-n4ncc(=O)[nH]c4=O)cc3Cl)o2)c1.O (racemic) [Compound 221] — lower, −2%
- CN(C)CCSC(c1ccc(Cl)cc1)c1ccc(-n2ncc(=O)[nH]c2=O)cc1Cl (racemic) [Compound 54] — lower, 14%
- O=c1cnn(-c2cc(Cl)c(C(Sc3ccccn3)c3ccc(Cl)c(C(F)(F)F)c3)c(Cl)c2)c(=O)[nH]1 (centres unmarked) [Compound 378] — higher, 91%
- O=c1cnn(-c2cc(Cl)c(C(c3ccc(Cl)cc3)c3nc(-c4ccccc4Br)cs3)c(Cl)c2)c(=O)[nH]1 (racemic) [Comp 244] — higher, 95%
- O.O=c1cnn(-c2ccc(C(Sc3nccc(O)n3)c3ccc(Cl)cc3)c(Cl)c2)c(=O)[nH]1 (racemic) [Compound 61] — lower, 14%
- Cc1ccccc1-c1nc(C(c2ccc(Cl)cc2)c2c(Cl)cc(-n3ncc(=O)[nH]c3=O)cc2Cl)cs1 (racemic) [Compound 374] — higher, 94%
- Cc1cc(NC(c2ccc(Cl)cc2)c2ccc(-n3ncc(=O)[nH]c3=O)cc2Cl)no1 (racemic) [Compound 40] — lower, 31%
- Cc1cc(-n2ncc(=O)[nH]c2=O)cc(C)c1C(c1ccc(Cl)c(Cl)c1)c1nc(-c2ccccc2)c(C)s1 (racemic) [Comp 271] — higher, 88%
- O=c1cnn(-c2ccc(C(c3ccc(Cl)cc3)n3cncn3)c(Cl)c2)c(=O)[nH]1 (racemic) [Comp 97] — lower, 26%
- CN(C)CCc1sc(C(c2ccc(Cl)cc2)c2c(Cl)cc(-n3ncc(=O)[nH]c3=O)cc2Cl)nc1-c1ccccc1 (racemic) [Comp 279] — higher, 92%
- CS(=O)(=O)c1cccc(-c2nnc(C(c3ccc(Cl)cc3)c3c(Cl)cc(-n4ncc(=O)[nH]c4=O)cc3Cl)o2)c1 (racemic) [Compound 205] — higher, 80%
- O=c1cnn(-c2cc(Cl)c(C(c3ccc(Cl)cc3)c3nnc(-c4ccc(Br)cc4)o3)c(Cl)c2)c(=O)[nH]1 (racemic) [Compound 168] — higher, 80%
- O=c1cnn(-c2cc(Cl)c(C(c3ccc(Cl)cc3)c3csc(-c4cccc(Cl)c4)n3)c(Cl)c2)c(=O)[nH]1 (racemic) [Compound 371] — higher, 88%
- O=c1cnn(-c2cc(Cl)c(C(c3ccc(Cl)cc3)c3nc(-c4ccc(O)cc4)cs3)c(Cl)c2)c(=O)[nH]1 (racemic) [Comp 26] — higher, 85%
- CN1CCC(Nc2ccnc(SC(c3ccc(Cl)cc3)c3c(Cl)cc(-n4ncc(=O)[nH]c4=O)cc3Cl)n2)CC1.Cl.O (racemic) [Compound 354] — higher, 70%
- O=c1cnn(-c2cc(Cl)c(C(c3ccncc3)c3ccc(Cl)cc3)c(Cl)c2)c(=O)[nH]1 (centres unmarked) [Comp 113] — higher, 76%
- Cc1nc(-c2cccc(F)c2)c(C(c2ccc(Cl)cc2)c2ccc(-n3ncc(=O)[nH]c3=O)cc2Cl)s1 (racemic) [Compound 143] — higher, 81%
- CCOC(=O)Cc1sc(C(c2ccc(Cl)cc2)c2c(Cl)cc(-n3ncc(=O)[nH]c3=O)cc2Cl)nc1-c1ccccc1 (racemic) [Comp 256] — higher, 94%
- CN(C)c1cccc(-c2nnc(C(c3ccc(Cl)cc3)c3c(Cl)cc(-n4ncc(=O)[nH]c4=O)cc3Cl)o2)c1 (racemic) [Compound 182] — higher, 75%
- O=c1cnn(-c2cc(Cl)c(C(c3ccc(Cl)cc3)c3ncc(-c4ccccc4)s3)c(Cl)c2)c(=O)[nH]1 (racemic) [Comp 267] — higher, 81%
- O=c1cnn(-c2cc(Cl)c(C(Nc3nc(-c4ccccc4)cs3)c3ccc(Cl)c(C(F)(F)F)c3)c(Cl)c2)c(=O)[nH]1 (racemic) [Compound 411] — higher, 94%
- O=c1cnn(-c2cc(Cl)c(C(c3ccc(Cl)cc3)c3csc(-c4ccccc4)n3)c(Cl)c2)c(=O)[nH]1 (racemic) [Compound 363, (±)-2-[3,5-dichloro-4-[(4-chlorophenyl)(2-phenyl-4-thiazoyl)methyl]phenyl]-1,2,4-triazine-3,5(2H,4H)-dione] — higher, 91%
- O=c1cnn(-c2ccc(C(NC3CCCCC3)c3ccc(Cl)cc3)c(Cl)c2)c(=O)[nH]1 (racemic) [Compound 46] — the same, 64%
- O=c1cnn(-c2cc(Cl)c(C(c3ccc(Cl)cc3)c3nnc(CCc4ccccc4)o3)c(Cl)c2)c(=O)[nH]1 (racemic) [Compound 172] — lower, 17%
- O=c1cnn(-c2ccc(C(Nc3nccs3)c3ccc(Cl)cc3)c(Cl)c2)c(=O)[nH]1 (racemic) [Compound 44] — lower, 40%
- CCCc1sc(C(c2ccc(Cl)cc2)c2c(Cl)cc(-n3ncc(=O)[nH]c3=O)cc2Cl)nc1-c1ccccc1 (racemic) [Comp 245] — higher, 98%
- Cc1sc(C(C)(c2ccc(Cl)c(C(F)(F)F)c2)c2c(Cl)cc(-n3ncc(=O)[nH]c3=O)cc2Cl)nc1-c1ccccc1 (racemic) [Comp 234] — higher, 83%
- O=c1cnn(-c2ccc(C(Sc3nc4ccccc4s3)c3ccc(Cl)cc3)c(Cl)c2)c(=O)[nH]1 (racemic) [Compound 77] — higher, 65%
- O=c1cnn(-c2cc(Cl)c(C(Sc3nccc(NC(CO)CO)n3)c3ccc(Cl)cc3)c(Cl)c2)c(=O)[nH]1 (racemic) [Compound 361] — lower, 28%
- CS(=O)(=O)Nc1cccc(-c2nnc(C(c3ccc(Cl)cc3)c3c(Cl)cc(-n4ncc(=O)[nH]c4=O)cc3Cl)o2)c1 (racemic) [Compound 208] — lower, 48%
- Cc1nnc(SC(c2ccc(Cl)cc2)c2ccc(-n3ncc(=O)[nH]c3=O)cc2Cl)s1 (racemic) [Compound 56] — lower, 41%
- Cc1nc(C(c2ccc(Cl)cc2)c2c(Cl)cc(-n3ncc(=O)[nH]c3=O)cc2Cl)sc1-c1ccccc1 (racemic) [Comp 248] — higher, 91%
- Cc1nc(SC(c2ccc(Cl)cc2)c2ccc(-n3ncc(=O)[nH]c3=O)cc2Cl)nc(O)c1CC1CC1 (racemic) [Compound 338] — lower, −15%
- O=c1cnn(-c2cc(Cl)c(C(c3ccc(Cl)c(C(F)(F)F)c3)c3nc(-c4ccccc4)cs3)c(Cl)c2)c(=O)[nH]1 (racemic) [Comp 226] — higher, 93%
- Cc1cccc(-c2nnc(C(c3ccc(Cl)cc3)c3c(Cl)cc(-n4ncc(=O)[nH]c4=O)cc3Cl)o2)c1 (racemic) [Compound 178] — higher, 78%
- CN(C)c1ccc(-c2nnc(C(c3ccc(Cl)cc3)c3c(Cl)cc(-n4ncc(=O)[nH]c4=O)cc3Cl)o2)cc1 (racemic) [Compound 180] — lower, 54%
- O=c1cnn(-c2cc(Cl)c(C(Sc3nc(-c4ccccc4)cs3)c3ccc(Cl)cc3)c(Cl)c2)c(=O)[nH]1 (centres unmarked) [Compound 380] — higher, 95%
- O=C(NC1CCN(Cc2ccccc2)CC1)c1sc(C(c2ccc(Cl)cc2)c2c(Cl)cc(-n3ncc(=O)[nH]c3=O)cc2Cl)nc1-c1ccccc1 (racemic) [Comp 305] — lower, 51%
- O=c1cnn(-c2cc(Cl)c(C(c3ccc(Cl)cc3)c3nc(-c4cccc(F)c4)cs3)c(Cl)c2)c(=O)[nH]1 (single isomer, unassigned) [Comp 318] — higher, 81%
- CC(c1ccc(Cl)c(Cl)c1)(c1nc(-c2ccccc2)c(-c2ccccc2)s1)c1c(Cl)cc(-n2ncc(=O)[nH]c2=O)cc1Cl (racemic) [Comp 228] — higher, 81%
- O=c1cnn(-c2cc(Cl)c(C(c3ccc(Cl)cc3)c3ncc(-c4ccccc4)o3)c(Cl)c2)c(=O)[nH]1 (racemic) [Comp 105] — higher, 88%

Same assay, conditions: test dose 1×10^−6 M, 48 hours, read-out: % inh. (percentage inhibition of IL-5 production)

`Cn1ccnc1C(c1ccc(Cl)cc1)c1ccc(-n2ncc(=O)[nH]c2=O)cc1Cl` (racemic) [Compound 123, (±)-2-[3-chloro-4-[(4-chlorophenyl)(1-methyl-1H-imidazol-2-yl)methyl]phenyl]-1,2,4-triazine-3,5(2H,4H)-dione] was tested, and the inhibition at 1 µM was 13%.
